Values after ≈ are worked out from the molar mass of the structure shown. Active and inactive are the calls of the source. No cut-off for these calls is given here.
Tests used:
[1] = Inhibition of bacterial ImiS expressed in Escherichia coli BL21 (DE3) using meropenem as substrate incubated for 1 hr by spectrometry analysis; parameters: species or system Bacteria
[2] = Inhibition of bacterial L1 using meropenem as substrate incubated for 1 hr by spectrometry analysis; parameters: species or system Bacteria
[3] = Inhibition of bacterial NDM-1 expressed in Escherichia coli BL21 (DE3) using meropenem as substrate incubated for 1 hr by spectrometry analysis; parameters: species or system Bacteria
[4] = Inhibition of bacterial IMP-1 using meropenem as substrate incubated for 1 hr by spectrometry analysis; parameters: species or system Bacteria
[5] = Inhibition of bacterial VIM-2 expressed in Escherichia coli BL21 (DE3) using meropenem as substrate incubated for 1 hr by spectrometry analysis; parameters: species or system Bacteria
Bacteria = assay: Inhibition of bacterial NDM-1 expressed in Escherichia coli BL21 (DE3) at 20 uM using meropenem as substrate incubated for 1 hr by spectrometry analysis relative to control
Enterococcus faecium = assay: Antibacterial activity against vancomycin-resistant Enterococcus faecium assessed as reduction in bacterial growth incubated for 24 hrs by broth microdilution method; assay type: functional
Escherichia coli [6] = assay: Inhibition of Escherichia coli L1 assessed as reduction in bacterial growth incubated for 24 hrs by broth microdilution method
Klebsiella pneumoniae [7] = assay: In vivo antibacterial activity against Klebsiella pneumoniae producing NDM-1 infected in mouse assessed as reduction in bacterial load in spleen at 10 mg/kg, ip; assay type: functional, organism-based
Escherichia coli [8] = assay: Antibacterial activity against Escherichia coli 08 assessed as reduction in bacterial growth incubated for 24 hrs by broth microdilution method; assay type: functional
Escherichia coli [9] = assay: Inhibition of Escherichia coli ImiS assessed as reduction in bacterial growth incubated for 24 hrs by broth microdilution method
Escherichia coli [10] = assay: Inhibition of Escherichia coli IMP-1 assessed as reduction in bacterial growth incubated for 24 hrs by broth microdilution method
Klebsiella pneumoniae [11] = assay: In vivo antibacterial activity against Klebsiella pneumoniae producing NDM-1 infected in mouse assessed as reduction in bacterial load in liver at 10 mg/kg, ip; assay type: functional, organism-based
Escherichia coli [12] = assay: Antibacterial activity against Escherichia coli 01 assessed as reduction in bacterial growth incubated for 24 hrs by broth microdilution method; assay type: functional
Escherichia coli [13] = assay: Antibacterial activity against Escherichia coli 24 assessed as reduction in bacterial growth incubated for 24 hrs by broth microdilution method; assay type: functional
Klebsiella pneumoniae [14] = assay: Antibacterial activity against Klebsiella pneumoniae assessed as reduction in bacterial growth incubated for 24 hrs by broth microdilution method; assay type: functional
Staphylococcus aureus = assay: Antibacterial activity against methicillin-resistant Staphylococcus aureus assessed as reduction in bacterial growth incubated for 24 hrs by broth microdilution method; assay type: functional
Escherichia coli [15] = assay: Antibacterial activity against Escherichia coli 06 assessed as reduction in bacterial growth incubated for 24 hrs by broth microdilution method; assay type: functional
Escherichia coli [16] = assay: Antibacterial activity against Escherichia coli 04 assessed as reduction in bacterial growth incubated for 24 hrs by broth microdilution method; assay type: functional
[17] = target: Metallo-beta-lactamase (Escherichia coli) (UniProt Q5U7L7); assay: Inhibition of Escherichia coli VIM-2 assessed as reduction in bacterial growth incubated for 24 hrs by broth microdilution method
Pseudomonas aeruginosa = assay: Antibacterial activity against Carbapenem-resistant Pseudomonas aeruginosa assessed as reduction in bacterial growth incubated for 24 hrs by broth microdilution method; assay type: functional
Escherichia coli [18] = assay: Inhibition of Escherichia coli NDM-1 assessed as reduction in bacterial growth incubated for 24 hrs by broth microdilution method

Row | SMILES | MIC (Enterococcus faecium) [µg/mL] | MIC (Escherichia coli [8]) [µg/mL] | MIC (Escherichia coli [12]) [µg/mL] | MIC (Escherichia coli [13]) [µg/mL] | MIC (Klebsiella pneumoniae [14]) [µg/mL] | MIC (Staphylococcus aureus) [µg/mL] | MIC (Escherichia coli [15]) [µg/mL] | MIC (Escherichia coli [16]) [µg/mL] | MIC (Pseudomonas aeruginosa) [µg/mL] | also measured
1 | O=C(O)C(=O)CBr [BROMOPYRUVATE] |  |  |  |  |  |  |  |  |  | IC50 [1]: > 40 µM; IC50 [2]: > 40 µM; IC50 [3]: 2.57 µM; IC50 [4]: 28.9 µM; IC50 [5]: 18.7 µM
2 | C[C@@H](O)[C@H]1C(=O)N2C(C(=O)O)=C(S[C@@H]3CN[C@H](C(=O)N(C)C)C3)[C@H](C)[C@H]12 [MEROPENEM] | 256 (≈ 0.668 mM) | 128 (≈ 0.334 mM) | 128 (≈ 0.334 mM) | 128 (≈ 0.334 mM) | 256 (≈ 0.668 mM) | 64 (≈ 0.167 mM) | 128 (≈ 0.334 mM) | 64 (≈ 0.167 mM) | 8 (≈ 0.0209 mM) | inhibition (Bacteria): > 90%; MIC (Escherichia coli [6]): 128 µg/mL (≈ 0.334 mM); inhibition (Klebsiella pneumoniae [7]): Active; MIC (Escherichia coli [9]): 64 µg/mL (≈ 0.167 mM); MIC (Escherichia coli [10]): 32 µg/mL (≈ 0.0834 mM); inhibition (Klebsiella pneumoniae [11]): Active; MIC [17]: 64 µg/mL (≈ 0.167 mM); MIC (Escherichia coli [18]): 128 µg/mL (≈ 0.334 mM)
3 | CC1(C)S[C@@H]2[C@H](NC(=O)[C@H](N)c3ccccc3)C(=O)N2[C@H]1C(=O)O [AMPICILLIN] | > 16000 | > 16000 | > 16000 | 16000 (≈ 45.8 mM) | 8190 (≈ 23.4 mM) | > 16000 | 8190 (≈ 23.4 mM) | > 16000 | > 16000 | 
4 | CO/N=C(\C(=O)N[C@@H]1C(=O)N2C(C(=O)O)=C(COC(C)=O)CS[C@H]12)c1csc(N)n1 [CEFOTAXIME] | 4100 (≈ 8.99 mM) | 8190 (≈ 18 mM) | 16000 (≈ 35.1 mM) | 16000 (≈ 35.1 mM) | 16000 (≈ 35.1 mM) | 1020 (≈ 2.25 mM) | 8190 (≈ 18 mM) | > 16000 | > 16000 | 
5 | CO/N=C(\C(=O)N[C@@H]1C(=O)N2C(C(=O)O)=C(CSc3nc(=O)c(O)nn3C)CS[C@H]12)c1csc(N)n1 [CEFTRIAXONE] | 512 (≈ 0.923 mM) | 16000 (≈ 28.9 mM) | 16000 (≈ 28.9 mM) | 16000 (≈ 28.9 mM) | 8190 (≈ 14.8 mM) | 4100 (≈ 7.39 mM) | 16000 (≈ 28.9 mM) | 16000 (≈ 28.9 mM) | 64 (≈ 0.115 mM) | 
6 | Cc1nnc(SCC2=C(C(=O)O)N3C(=O)[C@@H](NC(=O)Cn4cnnn4)[C@H]3SC2)s1 [CEFAZOLIN] | 8130 (≈ 17.9 mM) | 4100 (≈ 9.01 mM) | 16000 (≈ 35.2 mM) | 4100 (≈ 9.01 mM) | 4100 (≈ 9.01 mM) | 4100 (≈ 9.01 mM) | 4100 (≈ 9.01 mM) | 4100 (≈ 9.01 mM) | > 16000 | 
